Here are results for ten molecules from ChEMBL document CHEMBL1165859, “Synthesis, antiproliferative, acute toxicity and assessment of antiandrogenic activities of some newly synthesized steroidal lactams” (Eur J Med Chem, 2010).

SMILES strings stand for the structures.

One data set can be described thus: Cytotoxicity against Balb/C mouse macrophages assessed as cell mortality at 0.01 to 5 ug/ml after 24 hrs by MTT assay.
Conditions: not given
For orientation: Formazan colour is commonly taken as a measure of viable cells.
With `C[C@]12CC[C@H](OC(=O)c3ccc(O)cc3)CC1=CC[C@@H]1[C@@H]2CC[C@]2(C)NC(=O)CC[C@@H]12`, the mortality at 24 h turned out to be 20%.

The nature of a further data set: Cytotoxicity against Balb/C mouse macrophages assessed as cell viability after 24 hrs by MTT assay. It is filed as cell-based. Particulars: Macrophage.
As for `C[C@]12CC[C@H](OC(=O)c3ccc(Cl)cc3)CC1=CC[C@@H]1[C@@H]2CC[C@]2(C)NC(=O)CC[C@@H]12`, the LC50 came out at 100 µM.

Consider `Cc1ccc(C(=O)O[C@H]2CC[C@@]3(C)C(=CC[C@@H]4[C@@H]3CC[C@]3(C)NC(=O)CC[C@@H]43)C2)cc1`, for which the LC50 turned out to be 22.8 µM. On the same count and under the same terms, the value for `C[C@]12CC[C@H](OC(=O)CCl)CC1=CC[C@@H]1[C@@H]2CC[C@]2(C)NC(=O)CC[C@@H]12` was 94.1 µM; that for `C[C@]12CC[C@H](OC(=O)c3ccc(N)cc3)CC1=CC[C@@H]1[C@@H]2CC[C@]2(C)NC(=O)CC[C@@H]12` was 25.1 µM. Same read-out and setting: the value for `C[C@]12CC[C@H](OC(=O)c3ccc([N+](=O)[O-])cc3)CC1=CC[C@@H]1[C@@H]2CC[C@]2(C)NC(=O)CC[C@@H]12` was 27.8 µM; that for `CC(C)(C)NC(=O)[C@H]1CC[C@H]2[C@@H]3CC[C@H]4NC(=O)C=C[C@]4(C)[C@H]3CC[C@]12C` [FINASTERIDE] was 28.2 µM; that for `C[C@]12CC[C@H](OC(=O)c3ccccc3)CC1=CC[C@@H]1[C@@H]2CC[C@]2(C)NC(=O)CC[C@@H]12` was 43.6 µM.

Consider `COc1ccc(C(=O)O[C@H]2CC[C@@]3(C)C(=CC[C@@H]4[C@@H]3CC[C@]3(C)NC(=O)CC[C@@H]43)C2)cc1`, for which the LC50 is 8.4 µM. Same read-out and setting: the value for `C[C@]12CC[C@H](OC(=O)c3ccc(O)cc3)CC1=CC[C@@H]1[C@@H]2CC[C@]2(C)NC(=O)CC[C@@H]12` was 75 µM; that for `C[C@]12CC[C@H](OC(=O)COc3ccccc3)CC1=CC[C@@H]1[C@@H]2CC[C@]2(C)NC(=O)CC[C@@H]12` was 11.7 µM.

One may read the mortality as the share of the test organisms that died. What is called LC50 is the concentration lethal to half of the exposed cells or organisms.
